Experimental data from PMC10339607, “Screening and identification of emodin as an EBV DNase inhibitor to prevent its biological functions” (Virology Journal, 2023).

Target: T1, EBV DNase (BGLF5) (Epstein-barr virus strain ag876, UniProt Q1HVE7)
T1 construct: full-length wild-type, 470 amino acids; pET-15b His-tag; E. coli BL21(DE3) pLysS
Test: PicoGreen fluorescence nuclease activity assay
Format: biochemical

T1 sequence (Q1HVE7 whole entry): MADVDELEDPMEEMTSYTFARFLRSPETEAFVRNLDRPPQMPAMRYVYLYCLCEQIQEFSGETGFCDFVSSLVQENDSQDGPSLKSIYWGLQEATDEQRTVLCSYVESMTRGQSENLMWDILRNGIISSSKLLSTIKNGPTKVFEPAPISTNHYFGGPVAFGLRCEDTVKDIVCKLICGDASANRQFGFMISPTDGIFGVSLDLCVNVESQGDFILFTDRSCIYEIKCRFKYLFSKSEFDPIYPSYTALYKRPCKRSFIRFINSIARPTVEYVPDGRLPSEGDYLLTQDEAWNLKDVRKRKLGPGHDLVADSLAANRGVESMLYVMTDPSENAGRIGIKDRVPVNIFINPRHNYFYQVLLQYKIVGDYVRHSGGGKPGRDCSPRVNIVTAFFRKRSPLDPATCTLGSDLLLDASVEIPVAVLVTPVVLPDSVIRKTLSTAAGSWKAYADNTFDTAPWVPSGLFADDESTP

O=c1c(O)c(-c2ccc(O)cc2)oc2cc(O)cc(O)c12 [Kaempferol] gave an IC50 of 69 µM.
Work on C=CCSSCC=C [diallyl disulfide] yielded an IC50 of over 100 µM.
Cc1cc(O)c2c(c1)C(=O)c1cc(O)cc(O)c1C2=O [emodin] was tested, and the IC50 was 31 µM.
For O=C(O[C@@H]1Cc2c(O)cc(O)cc2O[C@@H]1c1cc(O)c(O)c(O)c1)c1cc(O)c(O)c(O)c1 [epigallocatechin gallate], the IC50 was 89 µM.
Work on C[S@@+]([O-])CCCCN=C=S [sulforaphane] yielded an IC50 of over 100 µM.
